Assay results taken from ChEMBL document CHEMBL1201862, “PubChem BioAssay data set” (2004).
Active and inactive are the calls of the source.

How the values were obtained:
[1] = target: T1, Endoribonuclease toxin MazF (Escherichia coli K-12, UniProt P0AE70); experiment: substrate-only fluorescence increase artefacts – biochemical, single-stranded RNase substrate, counter-screen for MazEF activator project, dose response (AID 588502); type: functional
T1 sequence (P0AE70 whole entry): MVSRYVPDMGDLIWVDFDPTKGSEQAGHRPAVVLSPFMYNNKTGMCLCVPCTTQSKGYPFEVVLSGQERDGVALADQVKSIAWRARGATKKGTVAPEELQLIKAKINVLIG

[2] = target: T1, Endoribonuclease toxin MazF; experiment: activation of MazEF endoribonuclease cleavage – biochemical, fluorescence, single-stranded RNA substrate, uHTS hits, dose response (AID 588481); type: functional
[3] = target: Ras and Rab interactor 1/Tyrosine-protein kinase ABL1 (Homo sapiens, UniProt P00519+Q13671); type: functional;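 note: biochemical TR-FRET dose-response test measuring inhibition of binding between Rin1 and Abl proteins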
[4] = target: T2, Latent membrane protein 1 (Human herpesvirus 4 (strain B95-8), UniProt P03230); experiment: LMP1 TES1 pathway selectivity over dsRED control – imaging, HEK293T, dual-color eGFP/dsRED, cherry-picks, selectivity assay for LMP1 NF-kB inhibitor project, dose response (AID 588398); type: functional, cell-based
T2 sequence (P03230 whole entry): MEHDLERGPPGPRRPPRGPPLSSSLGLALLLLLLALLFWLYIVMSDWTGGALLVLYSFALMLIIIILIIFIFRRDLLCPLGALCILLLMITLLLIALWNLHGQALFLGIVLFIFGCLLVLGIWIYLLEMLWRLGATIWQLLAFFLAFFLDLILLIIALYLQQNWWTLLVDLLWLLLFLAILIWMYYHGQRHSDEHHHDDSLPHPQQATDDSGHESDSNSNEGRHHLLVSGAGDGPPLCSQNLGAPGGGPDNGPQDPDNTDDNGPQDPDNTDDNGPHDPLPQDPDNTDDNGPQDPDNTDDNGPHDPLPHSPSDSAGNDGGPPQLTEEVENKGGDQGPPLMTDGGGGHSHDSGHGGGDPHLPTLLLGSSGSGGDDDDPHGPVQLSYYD

[5] = target: T3, Probable nicotinate-nucleotide adenylyltransferase (Staphylococcus aureus (strain N315), UniProt P65502); type: functional, Staphylococcus aureus subsp. aureus N315;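 for IC50 Mean: confirmatory dose-response retesting of NadD inhibitor hits first found in an ultra-high-throughput screen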
HEK293 = experiment: EBV LMP1 TES2 canonical NF-kB signalling blockers – cell-based, HEK293, luciferase, cherry-pick, dose response (AID 588343); type: functional; settings: Homo sapiens
[6] = target: T3, Probable nicotinate-nucleotide adenylyltransferase; type: functional, Staphylococcus aureus subsp. aureus N315; settings: read-out: IC50_Mean
[7] = target: 26S proteasome non-ATPase regulatory subunit 14 (Homo sapiens, UniProt O00487); experiment: inhibition of proteasome subunit RPN11 – biochemical, fluorescence polarization, uHTS hits, confirmation (AID 602368); type: functional
Prothrombin = Prothrombin (Bos taurus, UniProt P00735); experiment: thrombin protease inhibitors – biochemical, fluorescence polarization, uHTS hits, dose response (AID 602369); type: functional
[8] = target: T4, Sentrin-specific protease 1 (Homo sapiens, UniProt Q9P0U3); experiment: Dose response confirmation of small molecule inhibitors of the catalytic domain of the SUMO protease, SENP1 in a FRET assay.; type: functional; settings: read-out: IC50_Mean
T4 sequence (Q9P0U3 whole entry): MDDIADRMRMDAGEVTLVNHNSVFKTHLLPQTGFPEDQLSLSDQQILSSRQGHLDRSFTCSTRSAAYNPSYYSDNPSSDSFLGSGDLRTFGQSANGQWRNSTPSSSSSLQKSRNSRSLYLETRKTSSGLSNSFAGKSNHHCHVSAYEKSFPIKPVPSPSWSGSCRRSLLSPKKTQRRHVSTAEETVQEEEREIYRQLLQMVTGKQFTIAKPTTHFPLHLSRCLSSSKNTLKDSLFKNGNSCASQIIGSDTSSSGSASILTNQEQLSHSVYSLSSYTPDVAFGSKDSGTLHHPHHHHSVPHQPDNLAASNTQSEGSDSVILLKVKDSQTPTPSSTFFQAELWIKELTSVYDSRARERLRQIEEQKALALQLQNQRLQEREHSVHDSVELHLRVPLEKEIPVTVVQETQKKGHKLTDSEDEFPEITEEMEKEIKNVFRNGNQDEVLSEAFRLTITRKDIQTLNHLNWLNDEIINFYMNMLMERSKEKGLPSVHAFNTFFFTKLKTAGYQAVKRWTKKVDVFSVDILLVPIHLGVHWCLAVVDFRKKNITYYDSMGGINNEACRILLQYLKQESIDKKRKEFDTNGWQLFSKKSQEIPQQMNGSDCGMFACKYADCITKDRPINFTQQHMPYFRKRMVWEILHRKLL

[9] = target: 72 kDa type IV collagenase (Homo sapiens, UniProt P08253); experiment: Dose Response validation of uHTS RPN11 inhibitor hits using a MMP-2 Fluorescence assay.; type: functional
[10] = target: T5, Rac GTPase-activating protein 1 (Homo sapiens, UniProt Q9H0H5); experiment: blockers of MgcRacGAP-driven Rac1 GTP hydrolysis – biochemical, ADP Hunter fluorescence, primary and confirmatory, confirmation (AID 624330); type: functional
T5 sequence (Q9H0H5 whole entry): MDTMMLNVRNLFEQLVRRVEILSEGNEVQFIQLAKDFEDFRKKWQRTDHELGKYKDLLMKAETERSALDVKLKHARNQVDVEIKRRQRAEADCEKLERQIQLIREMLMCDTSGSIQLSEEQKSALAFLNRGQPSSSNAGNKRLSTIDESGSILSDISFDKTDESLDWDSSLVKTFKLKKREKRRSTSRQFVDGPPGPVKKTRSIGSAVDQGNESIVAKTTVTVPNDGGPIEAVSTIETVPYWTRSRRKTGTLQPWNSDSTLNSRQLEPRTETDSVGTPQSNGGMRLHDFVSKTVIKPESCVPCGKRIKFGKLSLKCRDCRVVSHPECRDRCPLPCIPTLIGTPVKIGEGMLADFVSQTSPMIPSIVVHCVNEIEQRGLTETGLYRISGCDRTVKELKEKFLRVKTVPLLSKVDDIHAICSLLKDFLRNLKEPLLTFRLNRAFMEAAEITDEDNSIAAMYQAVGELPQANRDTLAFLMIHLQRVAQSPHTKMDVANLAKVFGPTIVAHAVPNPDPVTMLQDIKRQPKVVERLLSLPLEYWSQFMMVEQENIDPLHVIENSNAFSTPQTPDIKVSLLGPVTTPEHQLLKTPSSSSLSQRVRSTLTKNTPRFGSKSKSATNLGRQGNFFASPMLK

[11] = target: T4, Sentrin-specific protease 1; experiment: SENP1 catalytic domain blockers, concentration series – biochemical, kinetic FRET, dose response (AID 651697); type: functional; settings: read-out: IC50_Mean
[12] = target: T6, Apoptotic protease-activating factor 1 (Homo sapiens, UniProt O14727); type: functional
T6 sequence (O14727 whole entry): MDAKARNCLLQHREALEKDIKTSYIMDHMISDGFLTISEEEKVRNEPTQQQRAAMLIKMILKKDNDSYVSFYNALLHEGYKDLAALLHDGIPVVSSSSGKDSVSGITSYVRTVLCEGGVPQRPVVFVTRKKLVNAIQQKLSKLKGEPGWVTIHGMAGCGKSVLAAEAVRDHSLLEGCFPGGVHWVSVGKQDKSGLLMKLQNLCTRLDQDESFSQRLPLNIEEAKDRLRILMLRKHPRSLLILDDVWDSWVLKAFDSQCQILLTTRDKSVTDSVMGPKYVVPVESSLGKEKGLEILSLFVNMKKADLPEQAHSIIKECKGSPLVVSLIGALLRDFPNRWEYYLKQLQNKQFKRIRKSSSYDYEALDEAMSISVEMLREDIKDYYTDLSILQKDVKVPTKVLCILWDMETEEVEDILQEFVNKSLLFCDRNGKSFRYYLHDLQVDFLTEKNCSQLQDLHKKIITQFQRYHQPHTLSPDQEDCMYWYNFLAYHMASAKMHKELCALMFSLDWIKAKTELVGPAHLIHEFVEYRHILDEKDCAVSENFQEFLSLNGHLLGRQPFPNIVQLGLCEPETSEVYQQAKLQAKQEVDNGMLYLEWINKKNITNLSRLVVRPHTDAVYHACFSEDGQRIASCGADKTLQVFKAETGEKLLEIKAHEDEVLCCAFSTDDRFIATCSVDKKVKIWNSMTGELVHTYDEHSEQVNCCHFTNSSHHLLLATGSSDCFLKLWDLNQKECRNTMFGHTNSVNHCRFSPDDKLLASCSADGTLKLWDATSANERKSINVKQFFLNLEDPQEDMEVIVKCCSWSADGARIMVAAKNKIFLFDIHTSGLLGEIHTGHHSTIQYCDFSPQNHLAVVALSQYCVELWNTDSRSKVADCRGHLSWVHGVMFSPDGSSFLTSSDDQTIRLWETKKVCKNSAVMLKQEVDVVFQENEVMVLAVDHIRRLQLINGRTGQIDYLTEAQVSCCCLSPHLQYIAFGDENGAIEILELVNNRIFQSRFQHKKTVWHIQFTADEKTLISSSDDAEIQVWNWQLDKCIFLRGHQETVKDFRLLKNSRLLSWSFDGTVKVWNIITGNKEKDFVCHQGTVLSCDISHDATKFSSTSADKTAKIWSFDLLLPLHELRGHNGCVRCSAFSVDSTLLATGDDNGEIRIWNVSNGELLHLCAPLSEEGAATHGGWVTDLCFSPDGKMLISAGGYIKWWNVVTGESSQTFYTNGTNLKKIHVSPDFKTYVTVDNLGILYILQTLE

T3 sequence (P65502 whole entry): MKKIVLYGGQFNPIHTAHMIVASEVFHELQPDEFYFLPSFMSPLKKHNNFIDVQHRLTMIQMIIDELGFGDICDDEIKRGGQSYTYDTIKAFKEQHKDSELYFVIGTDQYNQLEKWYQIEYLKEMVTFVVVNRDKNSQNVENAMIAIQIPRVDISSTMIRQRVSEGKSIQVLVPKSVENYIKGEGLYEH
Sequence of 26S proteasome non-ATPase regulatory subunit 14 (O00487 whole entry): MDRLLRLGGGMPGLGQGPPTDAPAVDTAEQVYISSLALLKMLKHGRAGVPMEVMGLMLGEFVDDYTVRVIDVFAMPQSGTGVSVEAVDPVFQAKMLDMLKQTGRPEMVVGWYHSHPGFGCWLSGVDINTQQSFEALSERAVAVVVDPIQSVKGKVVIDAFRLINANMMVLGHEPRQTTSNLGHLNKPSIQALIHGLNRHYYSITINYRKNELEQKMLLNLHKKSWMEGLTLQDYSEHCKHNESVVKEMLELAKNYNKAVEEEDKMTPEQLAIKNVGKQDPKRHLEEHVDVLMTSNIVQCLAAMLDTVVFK
Sequence of 72 kDa type IV collagenase (P08253 whole entry): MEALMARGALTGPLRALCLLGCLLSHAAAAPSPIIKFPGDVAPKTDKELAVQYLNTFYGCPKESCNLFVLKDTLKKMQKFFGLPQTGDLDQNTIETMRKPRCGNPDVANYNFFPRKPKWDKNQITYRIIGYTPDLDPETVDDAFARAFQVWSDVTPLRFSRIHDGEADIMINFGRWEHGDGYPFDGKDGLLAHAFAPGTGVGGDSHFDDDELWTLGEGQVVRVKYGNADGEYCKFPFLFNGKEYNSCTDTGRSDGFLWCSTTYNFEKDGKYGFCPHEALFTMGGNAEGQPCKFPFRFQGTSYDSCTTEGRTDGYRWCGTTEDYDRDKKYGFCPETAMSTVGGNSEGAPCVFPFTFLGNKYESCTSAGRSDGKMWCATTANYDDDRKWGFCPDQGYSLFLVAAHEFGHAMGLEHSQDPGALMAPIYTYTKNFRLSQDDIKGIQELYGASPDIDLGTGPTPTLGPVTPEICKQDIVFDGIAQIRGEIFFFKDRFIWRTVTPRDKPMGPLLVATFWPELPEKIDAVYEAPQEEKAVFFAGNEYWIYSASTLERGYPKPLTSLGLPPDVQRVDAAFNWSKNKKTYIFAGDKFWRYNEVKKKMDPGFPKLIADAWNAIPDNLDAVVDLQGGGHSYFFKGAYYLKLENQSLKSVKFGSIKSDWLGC
Sequence of Ras and Rab interactor 1/Tyrosine-protein kinase ABL1 (P00519 whole entry): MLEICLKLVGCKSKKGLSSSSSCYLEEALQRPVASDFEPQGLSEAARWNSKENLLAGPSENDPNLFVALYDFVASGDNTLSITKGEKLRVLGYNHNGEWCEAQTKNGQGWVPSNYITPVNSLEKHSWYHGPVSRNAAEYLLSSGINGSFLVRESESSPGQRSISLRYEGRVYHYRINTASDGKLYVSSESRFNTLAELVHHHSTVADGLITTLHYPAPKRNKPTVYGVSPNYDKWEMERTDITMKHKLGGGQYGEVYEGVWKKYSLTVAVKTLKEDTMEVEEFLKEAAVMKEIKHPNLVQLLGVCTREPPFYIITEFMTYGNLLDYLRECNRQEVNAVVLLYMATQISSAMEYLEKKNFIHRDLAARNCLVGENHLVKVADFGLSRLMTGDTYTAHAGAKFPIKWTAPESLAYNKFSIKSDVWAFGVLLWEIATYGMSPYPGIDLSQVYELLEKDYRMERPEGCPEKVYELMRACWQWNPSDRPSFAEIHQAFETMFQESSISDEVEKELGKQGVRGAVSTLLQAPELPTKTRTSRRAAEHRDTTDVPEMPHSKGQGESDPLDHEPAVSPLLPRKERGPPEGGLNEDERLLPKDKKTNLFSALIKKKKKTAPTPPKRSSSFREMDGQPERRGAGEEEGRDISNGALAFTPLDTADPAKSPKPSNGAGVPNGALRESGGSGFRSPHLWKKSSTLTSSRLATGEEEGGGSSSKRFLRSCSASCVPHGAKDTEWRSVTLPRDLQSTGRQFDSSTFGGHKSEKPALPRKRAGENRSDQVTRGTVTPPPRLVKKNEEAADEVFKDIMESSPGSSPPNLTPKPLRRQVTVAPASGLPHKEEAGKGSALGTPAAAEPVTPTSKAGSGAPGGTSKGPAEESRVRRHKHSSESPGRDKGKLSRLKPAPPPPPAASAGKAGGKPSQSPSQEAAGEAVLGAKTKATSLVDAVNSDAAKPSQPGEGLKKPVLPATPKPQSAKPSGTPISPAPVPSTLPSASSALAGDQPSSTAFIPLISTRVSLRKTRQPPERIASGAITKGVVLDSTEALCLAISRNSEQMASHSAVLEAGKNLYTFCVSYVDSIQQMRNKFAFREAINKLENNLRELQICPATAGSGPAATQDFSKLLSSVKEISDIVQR
Sequence of Ras and Rab interactor 1/Tyrosine-protein kinase ABL1 (Q13671 whole entry): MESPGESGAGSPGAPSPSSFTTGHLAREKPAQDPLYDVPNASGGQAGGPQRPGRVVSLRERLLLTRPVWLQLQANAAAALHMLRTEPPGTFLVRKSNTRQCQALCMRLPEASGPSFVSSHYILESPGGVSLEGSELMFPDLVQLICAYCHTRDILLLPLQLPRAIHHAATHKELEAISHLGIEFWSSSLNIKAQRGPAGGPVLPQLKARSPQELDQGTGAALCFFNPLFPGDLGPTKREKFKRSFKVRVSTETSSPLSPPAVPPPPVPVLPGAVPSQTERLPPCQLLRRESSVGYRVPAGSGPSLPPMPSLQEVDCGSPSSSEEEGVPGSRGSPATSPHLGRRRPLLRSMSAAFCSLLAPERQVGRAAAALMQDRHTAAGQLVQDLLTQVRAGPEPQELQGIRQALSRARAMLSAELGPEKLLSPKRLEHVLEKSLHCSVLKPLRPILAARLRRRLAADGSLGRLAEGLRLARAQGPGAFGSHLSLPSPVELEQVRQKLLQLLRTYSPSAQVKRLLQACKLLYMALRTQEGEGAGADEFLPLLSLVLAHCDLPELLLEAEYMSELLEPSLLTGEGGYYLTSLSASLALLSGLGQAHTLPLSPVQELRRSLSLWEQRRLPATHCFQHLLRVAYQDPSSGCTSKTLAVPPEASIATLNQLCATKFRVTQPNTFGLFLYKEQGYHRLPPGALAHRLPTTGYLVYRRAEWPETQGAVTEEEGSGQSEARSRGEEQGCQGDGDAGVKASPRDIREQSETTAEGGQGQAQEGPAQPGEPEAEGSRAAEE

Question: For `N#C/C(=C\c1cn(-c2ccccc2)nc1-c1cc2ccccc2o1)c1nc2ccccc2[nH]1`, which EC50 [1] is on record?
Answer: Its EC50 is 7.03 µM (active).

Question: What about the EC50 [2] of the same molecule?
Answer: The EC50 was > 99 µM (inactive).

Question: How did the IC50 [3] turn out when `CCOC(=O)CCCCC(=O)c1[nH]c(O)nc1C[n+]1ccc(C)cc1` was run?
Answer: The IC50 was 5.77 µM (active).

Question: With `CCn1c2ccccc2c2cc(/C=N/n3c(S)nnc3-c3cc(C)[nH]n3)ccc21` as the molecule, how does the AC50 [4] read?
Answer: Its AC50 is 288 nM (active).

Question: What about the IC50 [5] of the same molecule?
Answer: Its IC50 is 8.02 µM (active).

Question: And the AC50 (HEK293)?
Answer: The AC50 was 8.12 µM (active).

Question: And the IC50 [6]?
Answer: Its IC50 is 33.7 µM (active).

Question: How did the IC50 [7] turn out when `CCOC(=O)C1CCCN(C2=NC(=O)/C(=C/c3ccc(O)c(OC)c3)S2)C1` (centres undefined) was run?
Answer: The IC50 was 26.3 µM (active).

Question: And the IC50 (Prothrombin)?
Answer: The IC50 was 40.6 µM (active).

Question: What about the IC50 [8] of the same molecule?
Answer: The IC50 was 2.49 µM (active).

Question: And the IC50 [9]?
Answer: The IC50 was > 100 µM (inactive).

Question: And the IC50 [10]?
Answer: Its IC50 is 19.6 µM (active).

Question: And the IC50 [11]?
Answer: Its IC50 is 2.97 µM (active).

Question: Which IC50 [12] does the source give for `CC(C)N(Cc1cc2ccccc2nc1O)C(=O)C1CCCCC1` here?
Answer: Its IC50 is 13.6 µM (active).
